≈ marks a conversion by molar mass, not a printed value. Calls of active or inactive are those of the source. No cut-off for these calls is given here.
Columns and labels:
[1] = AUC in rat at 10 mg/kg, po; type: ADME, organism-based; design: dose 10 mg/kg, route oral; settings: plasma
[2] = Oral bioavailability in rat at 10 mg/kg, po; type: ADME, organism-based; settings: in vivo
[3] = Drug level in rat brain at 10 mg/kg, po after 1 hr; type: ADME, organism-based; design: dose 10 mg/kg, route oral; settings: read-out: Drug uptake
[4] = Drug level in rat brain at 10 mg/kg, po after 4 hrs; type: ADME, organism-based; design: dose 10 mg/kg, route oral; settings: read-out: Drug uptake
[5] = Volume of distribution in rat at 2.5 mg/kg, iv or 10 mg/kg, po; type: ADME, organism-based; settings: in vivo
[6] = Tmax in rat at 2.5 mg/kg, iv or 10 mg/kg, po; type: ADME, organism-based; settings: in vivo
[7] = Cmax in rat at 2.5 mg/kg, iv or 10 mg/kg, po; type: ADME, organism-based; settings: in vivo
[8] = AUC in Sprague-Dawley rat at 10 mg/kg, po; type: ADME, organism-based; design: dose 10 mg/kg, route oral; settings: plasma
[9] = Oral bioavailability in CD1 mouse at 10 mg/kg, po; type: ADME, organism-based; settings: in vivo
[10] = AUC in CD1 Beagle dog at 10 mg/kg, po; type: ADME, organism-based, Canis lupus familiaris; design: dose 10 mg/kg, route oral; settings: plasma
[11] = AUC in […] rhesus monkey at 10 mg/kg, po; type: ADME, organism-based, Macaca mulatta; design: dose 10 mg/kg, route oral; settings: plasma
Mus musculus [12] = assay: Increase in food intake in C57BL/6J mouse at 5 mg/kg on day 10; type: functional, organism-based; design: dose 5 mg/kg
[13] = target: Melanocyte-stimulating hormone receptor (Homo sapiens) (UniProt Q01726); assay: Displacement of [125I]NDP-MSH from human MC1R
Caco-2 = assay: Permeability across Caco-2 cell membrane; type: ADME, cell-based; settings: human
Mus musculus [14] = assay: Increase in food intake in C57BL/6J mouse at 20 mg/kg on day 10; type: functional, organism-based; design: dose 20 mg/kg
Mus musculus [15] = assay: Increase in food intake in C57BL/6J mouse at 5 mg/kg on day 11; type: functional, organism-based; design: dose 5 mg/kg
Mus musculus [16] = assay: Increase in food intake in C57BL/6J mouse at 20 mg/kg on day 11; type: functional, organism-based; design: dose 20 mg/kg
Mus musculus [17] = assay: Increase in food intake in C57BL/6J mouse at 5 mg/kg on day 12; type: functional, organism-based; design: dose 5 mg/kg
Mus musculus [18] = assay: Increase in food intake in C57BL/6J mouse at 20 mg/kg on day 12; type: functional, organism-based; design: dose 20 mg/kg
[19] = Dissociation constant, pKa of the compound; type: physicochemical
[20] = Aqueous solubility at pH 7.0; type: physicochemical; settings: aqueous medium
[21] = Aqueous solubility at pH 3.0; type: physicochemical; settings: aqueous medium
[22] = Volume of distribution in CD1 mouse at 2.5 mg/kg, iv; type: ADME, organism-based; design: dose 2.5 mg/kg, route intravenous; settings: in vivo
[23] = Volume of distribution in Beagle dog at 5 mg/kg, iv; type: ADME, organism-based, Canis lupus familiaris; design: dose 5 mg/kg, route intravenous; settings: in vivo
[24] = Volume of distribution in rhesus monkey at 5 mg/kg, iv; type: ADME, organism-based, Macaca mulatta; design: dose 5 mg/kg, route intravenous; settings: in vivo
[25] = AUC in CD1 mouse at 2.5 mg/kg, iv; type: ADME, organism-based; design: dose 2.5 mg/kg, route intravenous; settings: plasma
[26] = AUC in Beagle dog at 5 mg/kg, iv; type: ADME, organism-based, Canis lupus familiaris; design: dose 5 mg/kg, route intravenous; settings: plasma
[27] = AUC in rhesus monkey at 5 mg/kg, iv; type: ADME, organism-based, Macaca mulatta; design: dose 5 mg/kg, route intravenous; settings: plasma
[28] = Cmax in CD1 mouse at 10 mg/kg, po; type: ADME, organism-based; design: dose 10 mg/kg, route oral; settings: in vivo
[29] = Cmax in Sprague-Dawley rat at 10 mg/kg, po; type: ADME, organism-based; design: dose 10 mg/kg, route oral; settings: in vivo
[30] = Cmax in Beagle dog at 10 mg/kg, po; type: ADME, organism-based, Canis lupus familiaris; design: dose 10 mg/kg, route oral; settings: in vivo
[31] = Cmax in rhesus monkey at 10 mg/kg, po; type: ADME, organism-based, Macaca mulatta; design: dose 10 mg/kg, route oral; settings: in vivo
[32] = Tmax in CD1 mouse at 10 mg/kg, po; type: ADME, organism-based; design: dose 10 mg/kg, route oral; settings: in vivo, read-out: Tm
[33] = Tmax in Sprague-Dawley rat at 10 mg/kg, po; type: ADME, organism-based; design: dose 10 mg/kg, route oral; settings: in vivo, read-out: Tm
[34] = Tmax in Beagle dog at 10 mg/kg, po; type: ADME, organism-based, Canis lupus familiaris; design: dose 10 mg/kg, route oral; settings: in vivo, read-out: Tm
[35] = Tmax in rhesus monkey at 10 mg/kg, po; type: ADME, organism-based, Macaca mulatta; design: dose 10 mg/kg, route oral; settings: in vivo, read-out: Tm
[36] = AUC in CD1 mouse at 10 mg/kg, po; type: ADME, organism-based; design: dose 10 mg/kg, route oral; settings: plasma
[37] = Oral bioavailability in Beagle dog at 10 mg/kg, po; type: ADME, organism-based, Canis lupus familiaris; settings: in vivo
[38] = Oral bioavailability in rhesus monkey at 10 mg/kg, po; type: ADME, organism-based, Macaca mulatta; settings: in vivo
[39] = Cmax in CD1 mouse brain at 10 mg/kg, po; type: ADME, organism-based; design: dose 10 mg/kg, route oral
[40] = Cmax in Sprague-Dawley rat brain at 10 mg/kg, po; type: ADME, organism-based; design: dose 10 mg/kg, route oral
[41] = Tmax in CD1 mouse brain at 10 mg/kg, po; type: ADME, organism-based; design: dose 10 mg/kg, route oral
[42] = Tmax in Sprague-Dawley rat brain at 10 mg/kg, po; type: ADME, organism-based; design: dose 10 mg/kg, route oral
Mus musculus [43] = assay: AUC in CD1 mouse brain at 10 mg/kg, po; type: ADME, organism-based; design: dose 10 mg/kg, route oral; settings: in vivo
Rattus norvegicus = assay: AUC in Sprague-Dawley rat brain at 10 mg/kg, po; type: ADME, organism-based; design: dose 10 mg/kg, route oral; settings: in vivo
[44] = Ratio of drug level in brain to plasma in CD1 mouse at 10 mg/kg, po; type: ADME, organism-based; design: dose 10 mg/kg, route oral
[45] = Volume of distribution in rat at 5 mg/kg, iv or 10 mg/kg, po; type: ADME, organism-based; settings: in vivo
[46] = Tmax in rat at 5 mg/kg, iv or 10 mg/kg, po; type: ADME, organism-based; settings: in vivo
[47] = Cmax in rat at 5 mg/kg, iv or 10 mg/kg, po; type: ADME, organism-based; settings: in vivo
[48] = Ratio of drug level in brain to plasma in rat at 5 mg/kg, iv or 10 mg/kg, po after 1 hr; type: ADME, organism-based
[49] = Ratio of drug level in brain to plasma in rat at 5 mg/kg, iv or 10 mg/kg, po after 4 hrs; type: ADME, organism-based
[50] = Ratio of drug level in brain to plasma in rat at 2.5 mg/kg, iv or 10 mg/kg, po after 1 hr; type: ADME, organism-based
[51] = Ratio of drug level in brain to plasma in rat at 2.5 mg/kg, iv or 10 mg/kg, po after 4 hrs; type: ADME, organism-based
[52] = target: Melanocortin receptor 4 (Homo sapiens) (UniProt P32245); assay: Activity at MC4R expressed in HEK293 cells assessed as stimulation of cAMP release at 10 uM relative to alpha-MSH; type: functional, cell-based
[53] = Half life in rat at 2.5 mg/kg, iv or 10 mg/kg, po; type: ADME, organism-based; settings: in vivo
[54] = Plasma clearance in rat at 5 mg/kg, iv
Cytochrome P450 3A4 = Cytochrome P450 3A4 (Homo sapiens, UniProt P08684); assay: Inhibition of CYP3A4; type: ADME
Sequence of Cytochrome P450 3A4 (P08684 whole entry): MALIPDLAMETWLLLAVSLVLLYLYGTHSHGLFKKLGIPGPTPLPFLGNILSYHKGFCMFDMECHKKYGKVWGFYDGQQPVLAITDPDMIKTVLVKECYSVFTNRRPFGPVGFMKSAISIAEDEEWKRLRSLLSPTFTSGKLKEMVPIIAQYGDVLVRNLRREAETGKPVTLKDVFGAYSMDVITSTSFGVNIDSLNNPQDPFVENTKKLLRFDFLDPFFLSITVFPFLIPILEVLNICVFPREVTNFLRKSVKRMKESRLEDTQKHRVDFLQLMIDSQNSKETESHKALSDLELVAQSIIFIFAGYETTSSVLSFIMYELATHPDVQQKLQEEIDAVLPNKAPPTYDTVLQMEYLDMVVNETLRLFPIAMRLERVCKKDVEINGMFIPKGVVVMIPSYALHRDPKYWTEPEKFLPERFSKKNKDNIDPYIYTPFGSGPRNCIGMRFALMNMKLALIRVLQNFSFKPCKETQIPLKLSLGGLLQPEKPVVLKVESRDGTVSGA

Sequence of Melanocortin receptor 4 (Homo sapiens) (P32245 whole entry): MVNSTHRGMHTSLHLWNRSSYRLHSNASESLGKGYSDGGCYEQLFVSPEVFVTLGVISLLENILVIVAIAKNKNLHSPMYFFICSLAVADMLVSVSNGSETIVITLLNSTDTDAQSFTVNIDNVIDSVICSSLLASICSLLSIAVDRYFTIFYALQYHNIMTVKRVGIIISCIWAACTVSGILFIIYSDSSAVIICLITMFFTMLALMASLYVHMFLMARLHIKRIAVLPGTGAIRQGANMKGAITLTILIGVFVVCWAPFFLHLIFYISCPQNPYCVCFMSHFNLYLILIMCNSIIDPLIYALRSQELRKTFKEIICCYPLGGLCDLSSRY
Sequence of Melanocyte-stimulating hormone receptor (Homo sapiens) (Q01726 whole entry, looked up): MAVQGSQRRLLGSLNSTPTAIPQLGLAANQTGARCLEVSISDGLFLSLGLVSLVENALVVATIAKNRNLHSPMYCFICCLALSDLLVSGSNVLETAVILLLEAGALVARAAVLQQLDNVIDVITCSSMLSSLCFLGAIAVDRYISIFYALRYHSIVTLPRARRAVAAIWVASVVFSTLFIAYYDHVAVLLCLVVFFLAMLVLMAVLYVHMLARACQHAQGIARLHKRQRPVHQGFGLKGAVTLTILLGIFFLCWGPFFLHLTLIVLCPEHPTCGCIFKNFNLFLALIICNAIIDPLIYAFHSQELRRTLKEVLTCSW

Structure (SMILES): Cc1ccc(N2CCN(C(=O)[C@H](C)Cc3ccc(Cl)cc3F)CC2)c([C@@H](NC(=O)CCN(C)C)C(C)C)c1
- AUC [1]: 1470 ng·h/mL
- bioavailability [2]: 13%
- concentration at 1 h [3]: 8 ng/g
- concentration at 4 h [4]: 31 ng/g
- Vd [5]: 4.2 L/kg
- Tmax [6]: 4.7 h
- Cmax [7]: 134 ng/mL

Structure (SMILES): Cc1ccc(N2CCN(C(=O)[C@H](C)Cc3ccc(Cl)cc3)CC2)c([C@@H](NC(=O)CCN(C)C)C(C)C)c1
- AUC [1]: 1400 ng·h/mL
- bioavailability [2]: 43%
- concentration at 1 h [3]: 20 ng/g
- concentration at 4 h [4]: 33 ng/g
- AUC [8]: 1520 ng·h/mL
- bioavailability [9]: 32%
- AUC [10]: 2860 ng·h/mL
- AUC [11]: 3860 ng·h/mL
- Activity (Mus musculus [12]): Active
- Activity [13]: 50%
- permeability (Caco-2): 6.2 10^-6 cm/s
- Activity (Mus musculus [14]): Active
- Activity (Mus musculus [15]): Active
- Activity (Mus musculus [16]): Active
- Activity (Mus musculus [17]): Active
- Activity (Mus musculus [18]): Active
- pKa [19]: 7.8
- solubility [20]: 33 mg/mL (≈ 62.6 mM)
- solubility [21]: > 71 mg/mL
- Vd [22]: 4.1 L/kg
- Vd [23]: 5.9 L/kg
- Vd [24]: 2 L/kg
- AUC [25]: 1410 ng·h/mL
- AUC [26]: 8200 ng·h/mL
- AUC [27]: 10300 ng·h/mL
- Cmax [28]: 946 ng/mL
- Cmax [29]: 279 ng/mL
- Cmax [30]: 262 ng/mL
- Cmax [31]: 761 ng/mL
- Tmax [32]: 0.5 h
- Tmax [33]: 2.7 h
- Tmax [34]: 1.7 h
- Tmax [35]: 1.8 h
- AUC [36]: 2530 ng·h/mL
- bioavailability [37]: 19%
- bioavailability [38]: 19%
- Cmax [39]: 91 ng/g
- Cmax [40]: 41 ng/g
- Tmax [41]: 0.3 h
- Tmax [42]: 6 h
- AUC (Mus musculus [43]): 367 ng·h/g
- AUC (Rattus norvegicus): 254 ng·h/g
- Kp [44]: 0.15
- Vd [45]: 13 L/kg
- Tmax [46]: 4.7 h
- Cmax [47]: 110 ng/mL
- Kp at 1 h [48]: 0.2
- Kp at 4 h [49]: 0.4

Structure (SMILES): Cc1ccc(N2CCN(C(=O)[C@H](C)Cc3ccc(Cl)cc3C)CC2)c([C@@H](NC(=O)CCN(C)C)C(C)C)c1
- AUC [1]: 1950 ng·h/mL
- bioavailability [2]: 5.6%
- concentration at 1 h [3]: 9 ng/g
- concentration at 4 h [4]: 42 ng/g
- permeability (Caco-2): 1.9 10^-6 cm/s
- Vd [5]: 4.3 L/kg
- Tmax [6]: 4 h
- Cmax [7]: 208 ng/mL
- Kp at 1 h [50]: 0.1
- Kp at 4 h [51]: 0.3

Structure (SMILES): Cc1ccc(N2CCN(C(=O)[C@H](C)Cc3ccc(Cl)cc3F)CC2)c([C@@H](N)C(C)C)c1
- Activity [52]: 5%

Structure (SMILES): Cc1ccc(N2CCN(C(=O)[C@H](C)Cc3ccc(Cl)cc3)CC2)c([C@@H](NC(=O)CCN)C(C)C)c1
- Activity [13]: 42%
- permeability (Caco-2): 0.3 10^-6 cm/s

Structure (SMILES): CNCCN[C@H](c1cc(C)ccc1N1CCN(C(=O)[C@H](C)Cc2ccc(Cl)cc2F)CC1)C(C)C
- AUC [1]: 299 ng·h/mL
- bioavailability [2]: 13%
- concentration at 1 h [3]: < 5 ng/g
- concentration at 4 h [4]: < 5 ng/g
- Activity [52]: 7%
- permeability (Caco-2): 0.3 10^-6 cm/s
- Vd [5]: 95 L/kg
- half-life [53]: 17 h
- Tmax [6]: 6 h
- Cmax [7]: 22 ng/mL
- clearance [54]: 60 mL/min/kg

Structure (SMILES): Cc1ccc(N2CCN(C(=O)[C@H](C)Cc3ccc(Cl)cc3C)CC2)c([C@@H](N)C(C)C)c1
- Activity [52]: 2%

Structure (SMILES): CNCC(=O)N[C@H](c1cc(C)ccc1N1CCN(C(=O)[C@H](C)Cc2ccc(Cl)cc2F)CC1)C(C)C
- IC50 (Cytochrome P450 3A4): 6.9 µM
- Activity [52]: 12%
- permeability (Caco-2): 0.8 10^-6 cm/s

Structure (SMILES): Cc1ccc(N2CCN(C(=O)[C@H](C)Cc3ccc(Cl)cc3)CC2)c([C@@H](N)C(C)C)c1
- permeability (Caco-2): 5 10^-6 cm/s

Structure (SMILES): CNCCC(=O)N[C@H](c1cc(C)ccc1N1CCN(C(=O)[C@H](C)Cc2ccc(Cl)cc2)CC1)C(C)C
- AUC [1]: 563 ng·h/mL
- bioavailability [2]: 15%
- concentration at 1 h [3]: < 5 ng/g
- concentration at 4 h [4]: < 5 ng/g
- Activity [13]: 43%
- permeability (Caco-2): 1.2 10^-6 cm/s
- Vd [5]: 20 L/kg
- Tmax [6]: 3.3 h
- Cmax [7]: 57 ng/mL
